{"source": "ChEMBL document CHEMBL1123974", "about": "“A comprehensive method for determining hydrophobicity constants by reversed-phase high-performance liquid chromatography” (J Med Chem, 1988)", "key": {"[1]": {"details": "octanol/water"}, "physchem": {"experiment": "physchem", "details": "octanol/water"}}, "data": [{"smiles": "N#Cc1cccc(O)c1", "values": [{"measurement": "Log k' w", "setting": "[1]", "result": 1.557}, {"measurement": "logP", "setting": "physchem", "result": 1.7}]}, {"smiles": "COc1ccc(CO)cc1", "values": [{"measurement": "Log k' w", "setting": "[1]", "result": 0.815}, {"measurement": "logP", "setting": "physchem", "result": 1.1}]}, {"smiles": "COc1ccc(N)cc1", "values": [{"measurement": "Log k' w", "setting": "[1]", "result": 0.603}, {"measurement": "logP", "setting": "physchem", "result": 0.95}]}, {"smiles": "CC12CCC(C(=O)C1=O)C2(C)C", "note": "(centres undefined)", "values": [{"measurement": "Log k' w", "setting": "[1]", "result": 1.42}, {"measurement": "logP", "setting": "physchem", "result": 1.52}]}, {"smiles": "Oc1cccc(Cl)c1", "values": [{"measurement": "Log k' w", "setting": "[1]", "result": 2.391}]}, {"smiles": "Oc1ccc(F)cc1", "values": [{"measurement": "Log k' w", "setting": "[1]", "result": 1.575}]}, {"smiles": "Oc1ccc(I)cc1", "values": [{"measurement": "Log k' w", "setting": "[1]", "result": 2.795}]}, {"smiles": "O=[N+]([O-])c1ccc(Cl)cc1", "values": [{"measurement": "Log k' w", "setting": "[1]", "result": 2.165}, {"measurement": "logP", "setting": "physchem", "result": 2.3}]}, {"smiles": "N#Cc1cccc([N+](=O)[O-])c1", "values": [{"measurement": "Log k' w", "setting": "[1]", "result": 1.014}, {"measurement": "logP", "setting": "physchem", "result": 1.17}]}, {"smiles": "Oc1cccc(F)c1", "values": [{"measurement": "Log k' w", "setting": "[1]", "result": 1.749}]}, {"smiles": "Nc1cccc2ccccc12", "values": [{"measurement": "Log k' w", "setting": "[1]", "result": 2.203}]}, {"smiles": "COc1ccc([N+](=O)[O-])cc1", "values": [{"measurement": "Log k' w", "setting": "[1]", "result": 1.857}]}, {"smiles": "Oc1cccc(C(F)(F)F)c1", "values": [{"measurement": "Log k' w", "setting": "[1]", "result": 2.847}]}, {"smiles": "CCc1cccc(O)c1", "values": [{"measurement": "Log k' w", "setting": "[1]", "result": 2.228}, {"measurement": "logP", "setting": "physchem", "result": 2.4}]}, {"smiles": "Cc1ccc(N)cc1", "values": [{"measurement": "Log k' w", "setting": "[1]", "result": 1.405}]}, {"smiles": "Nc1cccc(F)c1", "values": [{"measurement": "Log k' w", "setting": "[1]", "result": 1.225}, {"measurement": "logP", "setting": "physchem", "result": 1.3}]}, {"smiles": "CC(=O)Nc1ccc(Br)cc1", "values": [{"measurement": "Log k' w", "setting": "[1]", "result": 2.293}, {"measurement": "logP", "setting": "physchem", "result": 2.29}]}, {"smiles": "COc1cccc(O)c1", "note": "[1-hydroxy-3-methoxybenzene]", "values": [{"measurement": "Log k' w", "setting": "[1]", "result": 1.254}]}, {"smiles": "Nc1ccc(Br)cc1", "note": "[4-BROMOANILINE]", "values": [{"measurement": "Log k' w", "setting": "[1]", "result": 2.043}]}, {"smiles": "Nc1ccc(Cl)cc1", "note": "[4-CHLOROANILINE]", "values": [{"measurement": "Log k' w", "setting": "[1]", "result": 1.855}, {"measurement": "logP", "setting": "physchem", "result": 1.83}]}, {"smiles": "CC(=O)c1ccccc1", "note": "[ACETOPHENONE]", "values": [{"measurement": "Log k' w", "setting": "[1]", "result": 1.359}]}, {"smiles": "COc1ccccc1", "note": "[ANISOLE]", "values": [{"measurement": "Log k' w", "setting": "[1]", "result": 2.006}]}, {"smiles": "c1ccc(/N=N/c2ccccc2)cc1", "note": "[AZOBENZENE]", "values": [{"measurement": "Log k' w", "setting": "[1]", "result": 3.961}, {"measurement": "logP", "setting": "physchem", "result": 3.82}]}, {"smiles": "N#Cc1ccccc1", "note": "[BENZONITRILE]", "values": [{"measurement": "Log k' w", "setting": "[1]", "result": 1.279}]}, {"smiles": "c1ccc2[nH]ccc2c1", "note": "[INDOLE]", "values": [{"measurement": "Log k' w", "setting": "[1]", "result": 2.014}, {"measurement": "logP", "setting": "physchem", "result": 2.14}]}, {"smiles": "COc1ccc(O)cc1", "note": "[MEQUINOL]", "values": [{"measurement": "Log k' w", "setting": "[1]", "result": 1.004}]}, {"smiles": "O=[N+]([O-])c1ccccc1", "note": "[NITROBENZENE]", "values": [{"measurement": "Log k' w", "setting": "[1]", "result": 1.633}]}, {"smiles": "Oc1ccc(Cl)cc1", "note": "[PARACHLOROPHENOL]", "values": [{"measurement": "Log k' w", "setting": "[1]", "result": 2.31}]}, {"smiles": "Oc1ccccc1", "note": "[PHENOL]", "values": [{"measurement": "Log k' w", "setting": "[1]", "result": 1.251}]}, {"smiles": "Oc1cccc(O)c1", "note": "[RESORCINOL]", "values": [{"measurement": "Log k' w", "setting": "[1]", "result": 0.544}]}, {"smiles": "Cc1ccc(C(C)C)c(O)c1", "note": "[THYMOL]", "values": [{"measurement": "Log k' w", "setting": "[1]", "result": 3.092}]}, {"smiles": "Cc1ccc(O)cc1", "note": "[p-CRESOL]", "values": [{"measurement": "Log k' w", "setting": "[1]", "result": 1.759}]}]}
